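Exposure lasted 48 hours, with cells grown in 96-well plates and compounds tested at five concentrations. At the GI50, growth is halved.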 Calls of active or inactive are those of the source. Rule as the data show it: active = GI50 up to about 1.1 µM and inactive = higher.
Experiments:
Assay in all cases: growth of human tumour cells (NCI), 48 h
M19-MEL = test system: M19-MEL
DMS-114 = test system: DMS-114
KM-20L2 = test system: KM-20L2
SNB-78 = test system: SNB-78
HOP-18 = test system: HOP-18
LXFL 529 = test system: LXFL 529
DLD-1 = test system: DLD-1
XF498 = test system: XF498
RXF 631 = test system: RXF 631

Row | SMILES | GI50 (M19-MEL) | GI50 (DMS-114) | GI50 (KM-20L2) | GI50 (SNB-78) | GI50 (HOP-18) | GI50 (LXFL 529) | GI50 (DLD-1) | GI50 (XF498) | GI50 (RXF 631)
1 | O=c1c2ccccc2[nH]c(=S)n1-c1ccc(Br)cc1 | 74.8 µM (inactive) | 46.7 µM (inactive) | 63.4 µM (inactive) | > 100 µM (inactive) | > 100 µM (inactive) | 37.3 µM (inactive) | 49.7 µM (inactive) | > 100 µM (inactive) | –
2 | Cc1cccc(NC(=O)CSc2nnc(Cc3ccccc3)o2)c1 | – | > 100 µM (inactive) | > 100 µM (inactive) | > 100 µM (inactive) | > 100 µM (inactive) | > 100 µM (inactive) | > 100 µM (inactive) | – | –
3 | Cc1c(C2Cc3ccccc3N2)c2ccccc2n1C (centres undefined) | > 100 µM (inactive) | > 100 µM (inactive) | > 100 µM (inactive) | > 100 µM (inactive) | – | > 100 µM (inactive) | > 100 µM (inactive) | > 100 µM (inactive) | –
4 | CC1C=C(OC(=O)c2ccccc2)C(=O)C(n2cc(F)c(=O)[nH]c2=O)O1 (centres undefined) | 93.3 µM (inactive) | > 100 µM (inactive) | 94.6 µM (inactive) | > 100 µM (inactive) | > 100 µM (inactive) | 56 µM (inactive) | 22.8 µM (inactive) | 48.1 µM (inactive) | –
5 | O=C1CCC(=O)N2CCCCN12 | > 100 µM (inactive) | > 100 µM (inactive) | > 100 µM (inactive) | > 100 µM (inactive) | > 100 µM (inactive) | > 100 µM (inactive) | > 100 µM (inactive) | – | > 100 µM (inactive)
6 | CC(=O)O[C@H]1CC[C@@]2(C)C(=CC[C@H]3C(CC#N)[C@@](C)(C#N)CCC32)C1 (some centres undefined) | > 100 µM (inactive) | > 100 µM (inactive) | > 100 µM (inactive) | 47.6 µM (inactive) | – | > 100 µM (inactive) | > 100 µM (inactive) | > 100 µM (inactive) | –
7 | COC(=O)[C@@H]1C(=O)O[C@@H](c2cc(OC)c(OC)cc2OC)[C@@H]1C(=O)OC.COC(=O)[C@H]1C(=O)O[C@@H](c2cc(OC)c(OC)cc2OC)[C@@H]1C(=O)OC | > 100 µM (inactive) | > 100 µM (inactive) | > 100 µM (inactive) | > 100 µM (inactive) | – | > 100 µM (inactive) | > 100 µM (inactive) | > 100 µM (inactive) | > 100 µM (inactive)
8 | O=[N+]([O-])C(=C1c2ccccc2-c2ccccc21)[N+](=O)[O-] | – | – | 57.3 µM (inactive) | > 100 µM (inactive) | – | 41.3 µM (inactive) | – | – | –
9 | N#CCCN(c1ccc(/C=C2\N=C(c3ccc(Cl)cc3)OC2=O)cc1)S(=O)(=O)c1ccccc1 | > 100 µM (inactive) | > 100 µM (inactive) | > 100 µM (inactive) | – | – | > 100 µM (inactive) | > 100 µM (inactive) | > 100 µM (inactive) | > 100 µM (inactive)
10 | Cc1cccc(C(C)(C)C)c1NC(=O)CCc1n[nH]c(=S)o1 | > 100 µM (inactive) | 43.3 µM (inactive) | > 100 µM (inactive) | > 100 µM (inactive) | > 100 µM (inactive) | > 100 µM (inactive) | 98.4 µM (inactive) | – | –
11 | COc1ccc(NC(=O)CC2S/C(=N\c3ccccc3C)NC2=O)c([N+](=O)[O-])c1 (centres undefined) | > 100 µM (inactive) | – | > 100 µM (inactive) | > 100 µM (inactive) | – | > 100 µM (inactive) | > 100 µM (inactive) | > 100 µM (inactive) | –
12 | C[n+]1ccc(Nc2ccc(NC(=O)c3ccc(Nc4cc[n+](C)c5ccc([N+](=O)[O-])cc45)cc3[N+](=O)[O-])cc2)cc1 | 18.3 µM (inactive) | 0.692 µM (active) | > 100 µM (inactive) | – | 20.5 µM (inactive) | 15.8 µM (inactive) | > 86.7 µM (inactive) | 33.5 µM (inactive) | –
13 | Cc1ccc2c(c1)SC(c1cc3c(cc1Br)OCO3)S2 (centres undefined) | 28.6 µM (inactive) | 15.8 µM (inactive) | 26.1 µM (inactive) | > 31.6 µM (inactive) | > 31.6 µM (inactive) | > 31.6 µM (inactive) | > 31.6 µM (inactive) | > 100 µM (inactive) | > 10 µM (inactive)
14 | CCOC(=O)c1c(/C=N\Nc2ccccc2)nc2ccccc2c1-c1ccccc1 | 26.8 µM (inactive) | 41.6 µM (inactive) | 38.5 µM (inactive) | 51.1 µM (inactive) | 31 µM (inactive) | 27.2 µM (inactive) | – | – | 41.2 µM (inactive)
15 | CN(CCCN1C(=O)c2cccc3cc([N+](=O)[O-])cc(c23)C1=O)CCN(C)CCCN1C(=O)c2cccc3cc([N+](=O)[O-])cc(c23)C1=O | 18.2 µM (inactive) | 33.6 µM (inactive) | > 39.3 µM (inactive) | > 39.3 µM (inactive) | > 39.3 µM (inactive) | 2.45 µM (inactive) | – | > 39.3 µM (inactive) | > 39.3 µM (inactive)
16 | CS(=O)(=O)Oc1cccc(/C=N/N=C(\N)NO)c1 | 42.5 µM (inactive) | 9.55 µM (inactive) | – | > 100 µM (inactive) | 69.8 µM (inactive) | 19.2 µM (inactive) | 24.9 µM (inactive) | 10.7 µM (inactive) | –

Row | SMILES | GI50 (M19-MEL) | GI50 (DMS-114) | GI50 (KM-20L2) | GI50 (SNB-78) | GI50 (HOP-18) | GI50 (LXFL 529) | GI50 (DLD-1) | GI50 (XF498) | GI50 (RXF 631)
17 | O=CN1CCN(C=S)CC1 | > 100 µM (inactive) | > 100 µM (inactive) | > 100 µM (inactive) | > 100 µM (inactive) | – | > 100 µM (inactive) | > 100 µM (inactive) | > 100 µM (inactive) | > 100 µM (inactive)
18 | CCOC(=O)C12CCCC1(O)N(NC(=O)OC(C)(C)C)C(C)=C2C(=O)OC (centres undefined) | > 100 µM (inactive) | > 100 µM (inactive) | > 100 µM (inactive) | > 100 µM (inactive) | > 100 µM (inactive) | > 100 µM (inactive) | > 100 µM (inactive) | > 100 µM (inactive) | > 100 µM (inactive)
19 | Cc1cccc(C)c1NC(=O)CCc1nnc2s/c(=C\c3ccc(Cl)cc3)c(=O)n12 | > 100 µM (inactive) | > 100 µM (inactive) | > 100 µM (inactive) | 70 µM (inactive) | > 100 µM (inactive) | 75.7 µM (inactive) | 37.8 µM (inactive) | 52.8 µM (inactive) | –
20 | O=C1NC2OC(CO)C(O)C(O1)C2O (centres undefined) | > 100 µM (inactive) | > 100 µM (inactive) | > 100 µM (inactive) | > 100 µM (inactive) | > 100 µM (inactive) | > 100 µM (inactive) | > 100 µM (inactive) | > 100 µM (inactive) | –
21 | Cn1c(=O)oc2cc(C3CCC(=O)N3Cc3csc(-c4ccccc4)n3)ccc21 (centres undefined) | > 100 µM (inactive) | > 100 µM (inactive) | > 100 µM (inactive) | > 100 µM (inactive) | > 100 µM (inactive) | 96.6 µM (inactive) | 86.9 µM (inactive) | 67.1 µM (inactive) | –
22 | c1ccc2c(c1)Cc1c(Cc3csc4ccccc34)ccc3cccc-2c13 | > 100 µM (inactive) | > 100 µM (inactive) | > 100 µM (inactive) | 94.4 µM (inactive) | – | > 100 µM (inactive) | > 100 µM (inactive) | > 100 µM (inactive) | > 100 µM (inactive)
23 | O=C(Cc1nc2ccccc2s1)C(=O)Nc1ccc(Cl)cc1 | > 100 µM (inactive) | > 100 µM (inactive) | > 100 µM (inactive) | > 100 µM (inactive) | > 100 µM (inactive) | > 100 µM (inactive) | > 100 µM (inactive) | – | –
24 | CCC1C(C(=O)Nc2ccccc2C)=C(C)NC(C)=C1c1ccccc1C (centres undefined) | > 80.4 µM (inactive) | – | > 92.3 µM (inactive) | > 100 µM (inactive) | > 60.8 µM (inactive) | > 100 µM (inactive) | > 39.7 µM (inactive) | > 100 µM (inactive) | –
25 | COc1cc(-c2n[nH]cc2CCCC(=O)Nc2ccccc2[N+](=O)[O-])ccc1O | – | 25.4 µM (inactive) | – | – | > 100 µM (inactive) | > 100 µM (inactive) | > 100 µM (inactive) | > 100 µM (inactive) | –
26 | COc1ccc2c[n+](C)c3c4cc(OC)c(OC)cc4ccc3c2c1 | 12.4 µM (inactive) | 1.05 µM (active) | 3.52 µM (inactive) | 12.2 µM (inactive) | 28.6 µM (inactive) | 1.21 µM (inactive) | 10.8 µM (inactive) | 9.84 µM (inactive) | 15.5 µM (inactive)
27 | COC(=O)C(=O)C(CC(=O)Nc1c(C)cccc1C)C(=O)OC (centres undefined) | > 100 µM (inactive) | > 100 µM (inactive) | > 100 µM (inactive) | > 100 µM (inactive) | > 100 µM (inactive) | > 100 µM (inactive) | > 100 µM (inactive) | > 100 µM (inactive) | > 100 µM (inactive)
28 | CC(C)CC(CNC(Cc1ccc(Cl)cc1)C(N)=O)NC(=O)C(Cc1c[nH]cn1)NC(=O)CNC(=O)C(NC(=O)C(C)NC(=O)C(Cc1c[nH]c2ccccc12)NC(=O)C(CCC(=O)O)NC(=O)C(N)Cc1ccccc1)C(C)C (centres undefined) | > 133 µM (inactive) | 119 µM (inactive) | > 133 µM (inactive) | > 133 µM (inactive) | – | > 133 µM (inactive) | > 133 µM (inactive) | > 133 µM (inactive) | > 133 µM (inactive)
29 | COC(=O)C1C(C(=O)OC)C2(OC)c3ccccc3-c3ccccc3C12 (centres undefined) | 33 µM (inactive) | 20.6 µM (inactive) | 26.2 µM (inactive) | – | 55.1 µM (inactive) | 44.1 µM (inactive) | 33.3 µM (inactive) | – | 54.8 µM (inactive)
30 | O=c1c2cccnc2ncn1CCCN1CCOCC1 | > 100 µM (inactive) | > 100 µM (inactive) | > 100 µM (inactive) | > 100 µM (inactive) | – | > 100 µM (inactive) | > 100 µM (inactive) | > 100 µM (inactive) | –
31 | CN(C)CCn1c2c3ccccc3ccc2c2oc(=O)c3ccccc3c21 | 5.46 µM (inactive) | – | 7.08 µM (inactive) | 19.7 µM (inactive) | 16.1 µM (inactive) | 4.98 µM (inactive) | 5.11 µM (inactive) | 15.3 µM (inactive) | 4.53 µM (inactive)
